Several values for one entry are separate records, joined by “and”; a condition that tells them apart may be missing. Identical values can stand only once. Like-named read-outs stand apart in the source and are kept apart here.
Columns and labels:
[1] = system: pentylenetetrazole (PTZ)-induced generalized clonic-tonic seizures; assay: juvenile PTZ rat model; format: in vivo
Procedure: (§1) Radiprodil anticonvulsant efficacy was specifically tested in rats at different time points during postnatal development, using pentylenetetrazole (PTZ) as a convulsant, to induce generalized clonic-tonic seizures. The activity of radiprodil in this juvenile PTZ rat model was tested up to 30 mg/kg, showing efficacy at a dose of 1 mg/kg. The calculated free plasma fraction of an orally administered 1 mg/kg dose is expected to give around 60% occupancy of the NR2B receptor, based on an ex-vivo occupancy study in rodents and assuming a 1:1 brain to plasma ratio, see below for further details.

NR2B receptor = target: T1, NR2B receptor (Rattus norvegicus, UniProt P35439+Q00960); assay: NR2B occupancy at rat doses, based on ex-vivo occupancy study in rodents
T1 construct: occupancy of the NR2B receptor, based on an ex-vivo occupancy study in rodents; from tissue; host or cells: rodent brain (ex vivo occupancy; brain is implied by the 1:1 brain to plasma ratio)
Procedure: as §1

audiogenic seizures = assay: audiogenic seizure model (generalized seizures); format: in vivo; conditions: adult mice
in vivo [2] = conditions: rat
in vivo [3] = conditions: dog
[4] = 9-month dog toxicology study; format: in vivo; conditions: 1.5 mg/kg/day
[5] = system: countable motor seizure (CMS); assay: phase 1B study, seizure cohort: efficacy; format: in vivo, human
Text: Investigational Product (IP): Radiprodil. This example describes an open-label, multicenter phase 1B study being conducted to evaluate the safety, tolerability, and pharmacokinetics (PK) of multiple individually titrated doses of radiprodil and to assess the treatment effect on seizures in participants with drug-resistant seizures caused by gain-of-function (GoF) variants in the GRIN1, GRIN2A, GRIN2B, or GRIN2D genes (GRIN2B GoF variants in the US only).
(§2) This is a global, open-label, multicenter, phase 1B study to evaluate the safety, tolerability, and PK of multiple individually titrated doses of radiprodil and to assess the treatment effect on seizures and behavioral symptoms in 2 cohorts of pediatric participants: 1 cohort of participants with drug resistant seizures (with or without behavioral symptoms) (Cohort 1) and 1 cohort of participants with behavioral symptoms (but no qualifying seizures) (Cohort 2) caused by GoF variants in the GRIN1, 2A, 2B, or 2D genes (GRIN2B GoF variants only in the US). These GoF variants are gene mutations that cause an increased sensitivity of NMDA receptors to glutamate or through decreased inhibition by magnesium, altered affinity to glycine, or other relevant changes considered to increase NMDA transmission. Drug-resistant seizures are defined as a failure to respond to at least 2 antiseizure medication (ASM) therapies taken at adequate doses for an appropriate duration with assured medication adherence as determined by the treating physician. Participants with seizures to be enrolled in the first cohort should have at least 1 observable motor seizure per week and ≥4 observable motor seizures in the prospective 4-week Observation Period.
A seizure cohort of patients from 6 months to 12 years of age with known GoF variants confirmed via method described in Myers, et al., Hum Mol Genetics. 2023, 32:2857-2871, was enrolled. The patients had drug-resistant seizures with or without behavioral symptoms. Patients also had ≥1 weekly countable motor seizure (CMS) with ≥4 generalized or focal seizures during the observation period. Motor seizures included drop seizures; generalized onset seizures included tonic-clonic, tonic, bilateral clonic, atonic, myoclonic-atonic, and myoclonic-tonic-clonic seizures; and focal seizures included seizures with bilateral hyperkinetic motor features and clonic seizures.
Primary endpoints included safety, tolerability, and radiprodil plasma concentrations. Key secondary endpoints (aka, change from baseline in observable daily CMS frequency using an electronic diary (eDiary)), included ≥50%, ≥90%, and 100% reductions from baseline in seizure frequency; proportion of seizure-free days; and Clinical Global Impressions of Change (CGI-C) and Caregiver Global Impressions of Change (CaGI-C), from baseline to the end of the maintenance period.

[6] = phase 1B study, seizure cohort: treatment emergent adverse events; format: in vivo
Text: The primary objectives of this study are to determine the safety and tolerability of multiple individually titrated doses of radiprodil as an add-on therapy to standard of care (SOC) in pediatric participants; establish a safe and well-tolerated dose; and to determine the pharmacokinetics (PK) and plasma exposure of radiprodil. Endpoints of these primary objectives include: adverse events (AEs), serious adverse events (SAEs), and adverse drug reactions (ADRs) (frequency, type, severity, and duration); changes in vital signs; physical examination findings; 12-lead electrocardiogram (ECG) findings; clinically significant changes in laboratory parameters; emergence of new seizure types; occurrence of suicidal ideation or behavior; determination of the maximum tolerated dose of radiprodil based on safety and tolerability data; and plasma concentrations of radiprodil.
Pyrexia, diarrhoea, and respiratory tract infection were the most common TEAEs. Three patients experienced SAEs, all unrelated to radiprodil treatment. One each of adenovirus infection, bronchiolitis, and viral pneumonia

behavioral symptoms = assay: phase 1B study, behavioral cohort: global impressions of change; format: in vivo, human; conditions: clinicians and caregivers
Text: as §2
A behavioral cohort of patients from 6 months to 12 years of age with known GoF variants confirmed via method described in Myers, et al., Hum Mol Genetics. […]

[7] = phase 1B study, behavioral cohort: treatment emergent adverse events; format: in vivo, human
Text: Pyrexia, diarrhoea, and respiratory tract infection were the most common TEAEs. Three patients experienced SAEs, all unrelated to radiprodil treatment. One each of adenovirus infection, bronchiolitis, and viral pneumonia.

[8] = Phase 1 study of normal healthy human subjects, 45 mg Radiprodil (30% Formulation) fed and fasted; format: in vivo; conditions: for AUC(0-inf) / AUC(0-t) / Cmax: human, in vivo, oral; for AUC(0-inf): read-out: AUCinf Geometric LSM; for AUC(0-t): read-out: AUClast Geometric LSM; for Cmax: read-out: Cmax Geometric LSM
[9] = cited from earlier work
[10] = 135 mg daily (45 mg tid) up to 14 weeks; cited from earlier work
[11] = all unrelated to radiprodil treatment
[12] = 2 participants, doses up to 0.2 mg/kg bid

T1 sequence (Q00960 27-1482, other chains not shown): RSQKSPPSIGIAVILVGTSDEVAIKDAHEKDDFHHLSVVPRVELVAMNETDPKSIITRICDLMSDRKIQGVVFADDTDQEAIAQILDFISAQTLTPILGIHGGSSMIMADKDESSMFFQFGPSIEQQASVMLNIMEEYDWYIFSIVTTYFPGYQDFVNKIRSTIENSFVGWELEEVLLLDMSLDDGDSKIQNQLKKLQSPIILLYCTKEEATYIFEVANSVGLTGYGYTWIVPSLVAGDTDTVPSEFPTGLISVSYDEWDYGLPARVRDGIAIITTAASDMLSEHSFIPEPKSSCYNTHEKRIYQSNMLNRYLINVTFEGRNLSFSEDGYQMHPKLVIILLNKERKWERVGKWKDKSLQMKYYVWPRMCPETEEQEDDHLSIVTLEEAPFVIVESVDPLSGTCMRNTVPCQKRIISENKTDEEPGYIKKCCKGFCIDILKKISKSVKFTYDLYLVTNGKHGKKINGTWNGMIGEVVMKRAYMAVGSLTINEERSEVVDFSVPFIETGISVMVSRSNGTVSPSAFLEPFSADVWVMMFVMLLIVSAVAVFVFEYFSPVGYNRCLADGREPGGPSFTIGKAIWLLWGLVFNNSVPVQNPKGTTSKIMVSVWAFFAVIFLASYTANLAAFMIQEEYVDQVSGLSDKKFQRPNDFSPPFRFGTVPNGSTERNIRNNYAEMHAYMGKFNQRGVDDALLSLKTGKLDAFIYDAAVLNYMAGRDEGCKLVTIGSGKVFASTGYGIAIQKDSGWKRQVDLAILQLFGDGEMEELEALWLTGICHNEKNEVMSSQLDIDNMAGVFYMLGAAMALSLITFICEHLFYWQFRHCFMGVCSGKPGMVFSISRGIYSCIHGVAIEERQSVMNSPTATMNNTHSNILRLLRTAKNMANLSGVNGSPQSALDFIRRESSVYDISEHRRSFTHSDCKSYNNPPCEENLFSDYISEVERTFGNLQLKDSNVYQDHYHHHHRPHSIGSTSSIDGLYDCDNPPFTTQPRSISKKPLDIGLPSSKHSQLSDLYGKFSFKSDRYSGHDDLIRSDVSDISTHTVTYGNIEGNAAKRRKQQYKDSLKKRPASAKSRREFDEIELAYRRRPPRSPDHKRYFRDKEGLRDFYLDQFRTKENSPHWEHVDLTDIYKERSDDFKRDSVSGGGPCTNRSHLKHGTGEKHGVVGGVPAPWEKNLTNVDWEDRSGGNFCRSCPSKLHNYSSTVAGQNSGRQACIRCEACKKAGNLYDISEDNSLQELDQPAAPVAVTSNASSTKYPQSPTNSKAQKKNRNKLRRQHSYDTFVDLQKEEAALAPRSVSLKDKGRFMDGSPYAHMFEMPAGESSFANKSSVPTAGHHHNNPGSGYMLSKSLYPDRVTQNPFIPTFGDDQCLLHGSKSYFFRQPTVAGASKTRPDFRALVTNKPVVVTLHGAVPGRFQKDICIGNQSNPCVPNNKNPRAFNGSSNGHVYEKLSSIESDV

O=C(Nc1ccc2[nH]c(=O)oc2c1)C(=O)N1CCC(Cc2ccc(F)cc2)CC1 [Radiprodil]
tonic phases of PTZ-induced convulsions ([1]; 10 mg/kg, postnatal day 12 and postnatal day 18 rats): completely blocked
dose showing efficacy in juvenile PTZ rat model ([1]; tested up to 30 mg/kg): 1 mg/kg
NR2B occupancy (NR2B receptor; 10 mg/kg): ~90%
occupancy of the NR2B receptor (NR2B receptor; orally administered 1 mg/kg, calculated free plasma fraction, 1:1 brain to plasma ratio assumed): around 60%
anticonvulsant efficacy in audiogenic seizure model (audiogenic seizures): anticonvulsant activity in the same range of doses/exposures
AUC (in vivo [2]): 9550 ng·h/mL
AUC0-24h at NOAEL (in vivo [2]): 9,555 ng×h/mL
AUC(0-t) (in vivo [2]): 9560 ng·h/mL
Cmax (in vivo [2]): 1400 ng/mL
Cmax at NOAEL (in vivo [2]): 1404 ng/mL
NOAEL at 4 weeks (in vivo [2]): 100 mg/kg/day
exposure (total Cmax and AUC) of 0.05 mg/kg bid lower than NOAEL exposure (in vivo [2]): more than 20 fold
NOAEL (in vivo [2]; 4 weeks): 100 mg/kg/day
NOAEL at 13 weeks (in vivo [3]): 1.5 mg/kg/day
AUC(0-t) (in vivo [3]; 1.5 mg/kg/day): 3750 ng·h/mL
Cmax (in vivo [3]; 1.5 mg/kg/day): 722 ng/mL
AUC(0-t) ([4]; dog, plasma, at 6-months, read-out: average AUC0-24h): 7060 ng·h/mL
seizures or convulsions ([4]; up to 6 months): no seizures or convulsions were observed
median reduction in CMS ([5]; 8-week maintenance period): ~86%
patients seizure-free during 80% of days ([5]; 8-week maintenance period): 6 of 7
patients with reduction in CMS of 100% ([5]; 8-week maintenance period): 14.3%
patients with reduction in CMS of ≥50% ([5]; 8-week maintenance period): 71.4%
patients with reduction in CMS of ≥90% ([5]; 8-week maintenance period): 42.9%
patients with reductions from baseline in CMS frequency ([5]; seizure cohort): 6 of 7
CGI-C and CaGI-C ([5]; seizure cohort, clinicians and caregivers): clinical improvement in most patients
Abnormal behavior, % ([6]; Seizure Cohort (n = 8)): (12.5) %
Agitation, % ([6]; Seizure Cohort (n = 8)): (12.5) %
Any TEAE, % ([6]; Seizure Cohort (n = 8)): (100) %
Cough, % ([6]; Seizure Cohort (n = 8)): (25.0) %
Diarrhoea, % ([6]; Seizure Cohort (n = 8)): (25.0) %
Dystonia, % ([6]; Seizure Cohort (n = 8)): (25.0) %
Fatigue, % ([6]; Seizure Cohort (n = 8)): (12.5) %
Gastroenteritis, % ([6]; Seizure Cohort (n = 8)): (25.0) %
Pyrexia, % ([6]; Seizure Cohort (n = 8)): (50.0) %
Respiratory tract infection, % ([6]; Seizure Cohort (n = 8)): (25.0) %
patients with SAEs [6, 11]: Three
tolerability ([6]; seizure cohort): generally well-tolerated
CGI-C and CaGI-C (behavioral symptoms): clinical improvement in most patients
Abnormal behavior, % ([7]; Behavioral Cohort (n = 7)): 28.6%
Agitation, % ([7]; Behavioral Cohort (n = 7)): 28.6%
Any TEAE, % ([7]; Behavioral Cohort (n = 7)): 85.7%
Cough, % ([7]; Behavioral Cohort (n = 7)): 14.3%
Diarrhea, % ([7]; Behavioral Cohort (n = 7)): 28.6%
Dystonia, % ([7]; Behavioral Cohort (n = 7)): 14.3%
Fatigue, % ([7]; Behavioral Cohort (n = 7)): 28.6%
Gastroenteritis, % ([7]; Behavioral Cohort (n = 7)): 14.3%
Pyrexia, % ([7]; Behavioral Cohort (n = 7)): 14.3%
Respiratory tract infection, % ([7]; Behavioral Cohort (n = 7)): 28.6%
patients with SAEs [7, 11]: Three
tolerability ([7]; behavioral cohort): generally well-tolerated
AUCinf Geometric LSM Ratio (Fed/Fasted) [8]: 148.4%
AUClast Geometric LSM Ratio (Fed/Fasted) [8]: 155.8%
Cmax Geometric LSM Ratio (Fed/Fasted) [8]: 259.6%
AUC(0-inf) ([8]; Fasted): 1890 ng·h/mL
AUC(0-t) ([8]; Fasted): 1780 ng·h/mL
Cmax ([8]; Fasted): 81.3 ng/mL
AUC(0-inf) ([8]; Fed): 2810 ng·h/mL
AUC(0-t) ([8]; Fed): 2770 ng·h/mL
Cmax ([8]; Fed): 211 ng/mL
AUC0-4 [9, 12]: up to 1036 ng×h/mL
AUC(0-t) [9, 12]: up to 1036 ng×h/mL
Cmax [9, 12]: up to 208 ng/mL
safety and tolerability ([9]; 3 infants, treatment for up to 34 days): safe and well tolerated
AUC [10]: 9000 ± 2387 ng·h/mL
AUC0-24h [10]: 6875 ng·h/mL
Cmax [10]: 487 ± 129 ng/mL and 482 ± 129 ng/mL
